Entries after “also recorded” stand apart in the source; their conditions may differ.
Tested on: gravid Culex mosquitoes
Experiment: not given
Set-up: method as in PMID 18725946, PMID 10083752, PMID 1583482, PMID 15274442
Conditions: indoor bioassays and field tests; cited from earlier work
In the case of `Cc1c[nH]c2ccccc12` [3-Methylindole], the “attraction of gravid Culex mosquitoes” value is given as “attractants”.
For `c1ccc2[nH]ccc2c1` [Indole], the “attraction of gravid Culex mosquitoes” value is given as “attractants”.

Tested on: AgamOR10
Experiment: not given
Set-up: method as in PMID 20130575, PMID 20160092, PMID 18427108
Conditions: cited from earlier work
In the case of `Cc1ccc(O)cc1` [4-methylphenol], the “response of AgamOR10” value is listed as “strongly respond”.
In the case of `Cc1c[nH]c2ccccc12` [3-Methylindole], the “response of AgamOR10” value is given as “strongly respond”.
For `c1ccc2[nH]ccc2c1` [Indole], the “response of AgamOR10” value is given as “strongly respond”.

Target: CquiOR2 + CquiOR7 (Culex quinquefasciatus, UniProt D5LMR6)
Sequence (Q309I4 entry or part of it): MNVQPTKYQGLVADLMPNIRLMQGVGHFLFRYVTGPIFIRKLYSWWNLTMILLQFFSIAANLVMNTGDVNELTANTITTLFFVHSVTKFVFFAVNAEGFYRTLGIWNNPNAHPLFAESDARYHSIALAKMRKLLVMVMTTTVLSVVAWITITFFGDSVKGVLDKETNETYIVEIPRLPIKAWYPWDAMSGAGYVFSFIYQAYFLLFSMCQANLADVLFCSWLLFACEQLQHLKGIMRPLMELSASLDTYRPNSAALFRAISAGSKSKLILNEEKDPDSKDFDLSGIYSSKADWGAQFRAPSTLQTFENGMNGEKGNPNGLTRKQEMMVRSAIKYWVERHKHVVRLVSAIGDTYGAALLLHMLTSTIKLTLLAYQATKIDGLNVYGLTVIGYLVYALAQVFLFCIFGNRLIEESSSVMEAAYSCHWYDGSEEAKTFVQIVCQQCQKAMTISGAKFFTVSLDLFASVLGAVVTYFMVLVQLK
Sequence (D5LMR6 entry or part of it): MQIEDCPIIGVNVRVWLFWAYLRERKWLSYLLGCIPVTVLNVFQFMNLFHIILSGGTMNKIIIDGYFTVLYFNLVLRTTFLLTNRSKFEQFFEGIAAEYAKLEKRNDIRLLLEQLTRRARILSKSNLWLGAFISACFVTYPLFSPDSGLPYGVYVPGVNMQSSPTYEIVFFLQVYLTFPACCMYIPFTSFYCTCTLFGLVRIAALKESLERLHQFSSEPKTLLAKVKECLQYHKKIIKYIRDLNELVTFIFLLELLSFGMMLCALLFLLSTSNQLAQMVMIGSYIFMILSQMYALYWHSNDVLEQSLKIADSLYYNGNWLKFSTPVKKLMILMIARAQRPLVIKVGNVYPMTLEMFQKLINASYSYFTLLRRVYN
Experiment: Two-electrode voltage clamp of Xenopus oocytes expressing CquiOR2 + CquiOR7
Type: cell-based
Conditions: not given
Procedure: Oocytes were surgically removed from mature Xenopus laevis frogs (Nasco). The care and use of Xenopus laevis frogs in this study were approved by the University of Miami Animal Research Committee and meet the guidelines of the National Institutes of Health. Follicle cells were removed by treatment with Collagenase B (Boehringer Mannhem) for 2 h at room temperature. CquiOR2 and CquiOR7 were transferred into pGEMHE [27]. Capped cRNA encoding each OR subunit was generated using mMessage mMachine kits (Ambion). 25 ng of cRNA encoding each OR subunit was injected into Stage V-VI Xenopus oocytes. Oocytes were incubated at 18°C in Barth's saline (in mM: 88 NaCl, 1 KCl, 2.4 NaHCO3, 0.3 CaNO3, 0.41 CaCl2, 0.82 MgSO4, 15 HEPES, pH 7.6, and 100 µg/ml amikacin) for 2–5 days prior to electrophysiological recording.
Odorant-induced currents were recorded under two-electrode voltage clamp from oocytes expressing ORs, using an automated parallel electrophysiology system (OpusXpress 6000A; Molecular Devices). Oocytes were perfused with ND96 (in mM: 96 NaCl, 2 KCl, 1 CaCl2, 1 MgCl2, 5 HEPES, pH 7.5). […] Micropipettes were filled with 3 M KCl and had resistances of 0.2–2.0 MΩ. The holding potential was −70 mV. Current responses were filtered (4-pole, Bessel, low pass) at 20 Hz (-3 db), sampled at 100 Hz and were captured and stored using OpusXpress 1.1 software (Molecular Devices). Initial analysis of electrophysiological data was done using Clampfit 9.1 software (Molecular Devices). Curve fitting of concentration-response data was done using Prism 4 (Graphpad). Concentration-response data were fit to the equation: I = Imax/(1+(EC50/X)^n) where I represents the current response at a given concentration of odorant, X; Imax is the maximal response; EC50 is the concentration of odorant yielding a half maximal response; n is the apparent Hill coefficient.
For `Cc1ccccc1O` [2-Methylphenol], the EC50 was 7.3 ± 1.5 µM.
In the case of `c1ccc2[nH]ccc2c1` [Indole], the EC50 is reported as 0.28 ± 0.12 µM.
For `Cn1ccc2ccccc21` [1-Methylindole], the EC50 was 20 ± 6 µM.

Same assay, conditions: 20 s applications, Hill fit; mean ± SEM, 5–16 separate oocytes; read-out: EC50
Work on `Cc1cccc2[nH]ccc12` [4-Methylindole] yielded an EC50 of 3.6 ± 0.8 µM.
For `Cc1ccc2[nH]ccc2c1` [5-Methylindole], the EC50 was 8.6 ± 2 µM.
For `Cc1cccc2cc[nH]c12` [7-Methylindole], the EC50 was 18 ± 3 µM.
Work on `Cc1c[nH]c2ccccc12` [3-Methylindole] yielded an EC50 of 20 ± 6 µM.
With `Cc1cc2ccccc2[nH]1` [2-Methylindole] the EC50 was 7.5 ± 4.1 µM.
For `Cc1ccc2cc[nH]c2c1` [6-Methylindole], the EC50 was 3 ± 0.6 µM.

Same assay, conditions: Hill fit of concentration-response data; mean ± SEM, 5–16 oocytes
In the case of `Cc1ccccc1O` [2-Methylphenol], the “nH (Hill coefficient)” value is reported as 1.0±0.2.
In the case of `Cc1cccc2[nH]ccc12` [4-Methylindole], the “nH (Hill coefficient)” value is reported as 1.0±0.2.
In the case of `Cc1ccc2[nH]ccc2c1` [5-Methylindole], the “nH (Hill coefficient)” value is reported as 1.1±0.2.
For `Cc1cccc2cc[nH]c12` [7-Methylindole], the “nH (Hill coefficient)” value was 1.1±0.2.
In the case of `Cc1c[nH]c2ccccc12` [3-Methylindole], the “nH (Hill coefficient)” value is reported as 0.9±0.2.
For `Cc1cc2ccccc2[nH]1` [2-Methylindole], the “nH (Hill coefficient)” value was 0.9±0.4.
For `c1ccc2[nH]ccc2c1` [Indole], the “nH (Hill coefficient)” value was 0.8±0.2.
With `Cn1ccc2ccccc21` [1-Methylindole] the “nH (Hill coefficient)” value was 1.3±0.5.
With `Cc1ccc2cc[nH]c2c1` [6-Methylindole] the “nH (Hill coefficient)” value was 0.9±0.2.

Same assay, conditions: Xenopus oocyte system
In the case of `c1ccc2[nH]ccc2c1` [Indole], the “selectivity for indole over the various methylindoles” value is reported as 10- to 70 fold.

Same assay, conditions: each compound applied for 20 s at 10 µM
For `Cc1ccccc1O` [2-Methylphenol], the “current response in panel screen” value was “responded well; also recorded: best responses for phenolic compounds”.
In the case of `c1ccc2[nH]ccc2c1` [Indole], the “current response in panel screen” value is reported as “largest current responses”.

Same assay, conditions: in words
In the case of `Cc1ccccc1O` [2-Methylphenol], the “relative efficacies (maximal responses) compared with indole” value (“relative efficacies (maximal responses)” below) is reported as “lower relative efficacies than indole”.
With `Cc1cccc2[nH]ccc12` [4-Methylindole] the “relative efficacies (maximal responses)” value was “lower relative efficacies than indole”.
In the case of `Cc1ccc2[nH]ccc2c1` [5-Methylindole], the “relative efficacies (maximal responses)” value is reported as “lower relative efficacies than indole”.
In the case of `Cc1cccc2cc[nH]c12` [7-Methylindole], the “relative efficacies (maximal responses)” value is reported as “lower relative efficacies than indole”.
With `Cc1ccc2cc[nH]c2c1` [6-Methylindole] the “relative efficacies (maximal responses)” value was “lower relative efficacies than indole”.

Same assay, conditions: maximum value from fit, as percentage of the maximum value for indole; mean ± SEM; read-out: Relative Efficacy
Work on `Cc1cccc2[nH]ccc12` [4-Methylindole] yielded an Emax of 60 ± 4%.
`Cc1ccc2[nH]ccc2c1` [5-Methylindole] showed an Emax of 59 ± 4%.
Work on `Cc1cccc2cc[nH]c12` [7-Methylindole] yielded an Emax of 67 ± 4%.
For `Cc1c[nH]c2ccccc12` [3-Methylindole], the Emax was 92 ± 8%.
`Cc1cc2ccccc2[nH]1` [2-Methylindole] gave an Emax of 106 ± 16%.
For `Cc1ccc2cc[nH]c2c1` [6-Methylindole], the Emax was 69 ± 4%.

Same assay, conditions: read-out: Relative Efficacy
`Cc1ccccc1O` [2-Methylphenol] showed an Emax of 70 ± 9%.
Work on `c1ccc2[nH]ccc2c1` [Indole] yielded an Emax of 100%.
`Cn1ccc2ccccc21` [1-Methylindole] gave an Emax of 84 ± 9%.

Tested on: ORN-B in the blunt-tipped trichoid sensilla A2
Experiment: not given
Set-up: method as in PMID 19858490
Conditions: cited from earlier work
In the case of `Cc1ccc(O)cc1` [4-methylphenol], the “response threshold compared with 2-methylphenol” value is given as “three orders of magnitude higher”.
For `Cc1cccc(O)c1` [3-methylphenol], the “response threshold compared with 2-methylphenol” value is given as “three orders of magnitude higher”.

Same assay, conditions: compounds tested individually; cited from earlier work
For `Cc1ccccc1O` [2-Methylphenol], the “excitatory response of ORN-B” value is given as “eliciting the strongest response”.
For `c1ccc2[nH]ccc2c1` [Indole], the “excitatory response of ORN-B” value is given as “strongest dose-dependent responses”.

Same assay, conditions: single sensillum recordings from A2; cited from earlier work
For `c1ccc2[nH]ccc2c1` [Indole], the “selectivity for indole over methylindoles” value is listed as “three orders of magnitude selectivity”.

Tested on: AgamOR2
Experiment: not given
Set-up: method as in PMID 20130575, PMID 20160092, PMID 14724626, PMID 18427108
Conditions: cited from earlier work
In the case of `Cc1ccccc1O` [2-Methylphenol], the “response of AgamOR2” value is listed as “strongly respond”.
For `Cc1c[nH]c2ccccc12` [3-Methylindole], the “response of AgamOR2” value is given as “strongly respond”.
For `c1ccc2[nH]ccc2c1` [Indole], the “response of AgamOR2” value is given as “strongly respond”.

Reference: PMC2851645, “An Odorant Receptor from the Southern House Mosquito Culex pipiens quinquefasciatus Sensitive to Oviposition Attractants” (PLoS ONE, 2010)
